Biological target: T1, glutathione S-transferase (GST)-fused full-length human Syk protein (Homo sapiens, UniProt P43405)
T1 construct: (GST)-fused full-length human Syk protein; GST (glutathione S-transferase); purchased Carna Biosciences
Experiment: Syk enzyme assay
Assay type: biochemical
Conditions: Syk enzyme assay, Test Example 1; read-out: IC50 of Syk-inhibitory activity
Procedure, shortened: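 Baculovirus-expressed enzyme (1.2 ng) was preincubated with compound in HEPES pH 7.0/MgCl2/DTT buffer, 2 min shaking then 13 min at room temperature. Biotin-EDPDYEWPSA-NH2 (0.4 μM final) and ATP (27 μM final) were added for 40 min at room temperature. EDTA stop, streptavidin-XL/PT66-K TR-FRET at 615/665 nm gave IC50.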

Row | IC50 [nM] | SMILES
1 | < 10 | NC(=O)c1cc(F)c(N[C@@H]2CCCC[C@@H]2N)nc1Nc1ccc2nc(-n3cccn3)cnc2c1 (relative stereo) [Example 004-208, 2-((2-(1H-pyrazol-1-yl)quinoxalin-6-yl)amino)-6-(cis-2-aminocyclohexylamino)-5-fluoronicotinamide]
2 | < 10 | NC(=O)c1cc(F)c(N[C@@H]2CCCC[C@@H]2N)nc1Nc1cnc2cc(-n3nccn3)ccc2c1 (relative stereo) [Example 004-209, 2-((7-(2H-1,2,3-triazol-2-yl)quinolin-3-yl)amino)-6-(cis-2-aminocyclohexylamino)-5-fluoronicotinamide]
3 | < 10 | NC(=O)c1cc(F)c(N[C@@H]2CCCC[C@@H]2N)nc1Nc1cnc2cc(-n3cccn3)ccc2c1 (relative stereo) [Example 004-210, 2-((7-(1H-pyrazol-1-yl)quinolin-3-yl)amino)-6-(cis-2-aminocyclohexylamino)-5-fluoronicotinamide]
4 | 100 to 1000 | NC(=O)c1cc(F)c(N[C@@H]2CCCC[C@@H]2N)nc1Nc1cncc(-n2ccccc2=O)c1 (relative stereo) [Example 004-211, 6-(cis-2-aminocyclohexylamino)-5-fluoro-2-((2-oxo-2H-[1,3′-bipyridin]-5′-yl)amino)nicotinamide]
5 | 10 to 50 | NC(=O)c1cc(F)c(N[C@@H]2CCCC[C@@H]2N)nc1Nc1cnc(N2CCOCC2)c(F)c1 (relative stereo) [Example 004-216, 6-(cis-2-aminocyclohexylamino)-5-fluoro-2-((5-fluoro-6-morpholinopyridin-3-yl)amino)nicotinamide]
6 | < 10 | NC(=O)c1cc(F)c(N[C@@H]2CCCC[C@@H]2N)nc1Nc1cncc(-c2cccc(N3CCOCC3)c2)c1 (relative stereo) [Example 004-221, 6-(cis-2-aminocyclohexylamino)-5-fluoro-2-((5-(3-morpholinophenyl)pyridin-3-yl)amino)nicotinamide]
7 | 10 to 50 | NC(=O)c1cc(F)c(N[C@@H]2CCCC[C@@H]2N)nc1Nc1cncc(-c2cccc(N3CCCC3=O)c2)c1 (relative stereo) [Example 004-225, 6-(cis-2-aminocyclohexylamino)-5-fluoro-2-((5-(3-(2-oxopyrrolidin-1-yl)phenyl)pyridin-3-yl)amino)nicotinamide]
8 | 10 to 50 | COc1cccc(-c2cncc(Nc3nc(N[C@@H]4CCCC[C@@H]4N)c(F)cc3C(N)=O)c2)n1 (relative stereo) [Example 004-230, 6-((cis-2-aminocyclohexyl)amino)-5-fluoro-2-((6-methoxy-[2,3′-bipyridin]-5′-yl)amino)nicotinamide]
9 | 10 to 50 | COc1ccc(-c2cncc(Nc3nc(N[C@@H]4CCCC[C@@H]4N)c(F)cc3C(N)=O)c2)cn1 (relative stereo) [Example 004-231, 6-((cis-2-aminocyclohexyl)amino)-5-fluoro-2-((6′-methoxy-[3,3′-bipyridin]-5-yl)amino)nicotinamide]
10 | < 10 | COc1cc(-c2cncc(Nc3nc(N[C@@H]4CCCC[C@@H]4N)c(F)cc3C(N)=O)c2)ccn1 (relative stereo) [Example 004-232, 6-((cis-2-aminocyclohexyl)amino)-5-fluoro-2-((2′-methoxy-[3,4′-bipyridine]-5-yl)amino)nicotinamide]
11 | < 10 | Cn1ccc2c(Nc3nc(N[C@@H]4CCCC[C@@H]4N)c(F)cc3C(N)=O)cccc21 (relative stereo) [Example 006-059, 6-(cis-2-aminocyclohexylamino)-5-fluoro-2-((1-methyl-1H-indol-4-yl)amino)nicotinamide]
12 | 100 to 1000 | Cn1cc2cccc(Nc3nc(N[C@@H]4CCCC[C@@H]4N)c(F)cc3C(N)=O)c2n1 (relative stereo) [Example 006-074, 6-(cis-2-aminocyclohexylamino)-5-fluoro-2-((2-methyl-2H-indazol-7-yl)amino)nicotinamide]
13 | 10 to 50 | CN1CCc2ccc(Nc3nc(N[C@@H]4CCCC[C@@H]4N)c(F)cc3C(N)=O)cc2C1 (relative stereo) [Example 006-077, 6-(cis-2-aminocyclohexylamino)-5-fluoro-2-((2-methyl-1,2,3,4-tetrahydroisoquinolin-7-yl)amino)nicotinamide]
14 | < 10 | NC(=O)c1cc(F)c(N[C@@H]2CCCC[C@@H]2N)nc1Nc1ccc2cn[nH]c2c1 (relative stereo) [Example 006-086, 6-(cis-2-aminocyclohexylamino)-5-fluoro-2-((1H-indazol-6-yl)amino)nicotinamide]
15 | 10 to 50 | Cn1ccc2cc(-c3cncc(Nc4nc(N[C@@H]5CCCC[C@@H]5N)c(F)cc4C(N)=O)c3)ccc21 (relative stereo) [Example 006-091, 6-((cis-2-aminocyclohexyl)amino)-5-fluoro-2-((5-(1-methyl-1H-indol-5-yl)pyridin-3-yl)amino)nicotinamide]
16 | 10 to 50 | NC(=O)c1cc(F)c(N[C@@H]2CCCC[C@@H]2N)nc1Nc1cncc(-n2ccnc2)c1 (relative stereo) [Example 006-127, 2-((5-(1H-imidazol-1-yl)pyridin-3-yl)amino)-6-((cis-2-aminocyclohexyl)amino)-5-fluoronicotinamide]
17 | < 10 | NC(=O)c1cc(F)c(N[C@@H]2CCCC[C@@H]2N)nc1Nc1ccnc(-c2cc[nH]c2)c1 (relative stereo) [Example 006-131, 2-((2-(1H-pyrrol-3-yl)pyridin-4-yl)amino)-6-((cis-2-aminocyclohexyl)amino)-5-fluoronicotinamide]
18 | 10 to 50 | Cc1ncc(Nc2nc(N[C@@H]3CCCC[C@@H]3N)c(F)cc2C(N)=O)cc1-n1ccnn1 (relative stereo) [Example 006-152, 6-((cis-2-aminocyclohexyl)amino)-5-fluoro-2-((6-methyl-5-(1H-1,2,3-triazol-1-yl)pyridin-3-yl)amino)nicotinamide]
19 | 10 to 50 | NC(=O)c1cc(F)c(N[C@@H]2CCCC[C@@H]2N)nc1Nc1ccc(Nc2ccccc2)nc1 (relative stereo) [Example 006-164, 6-((cis-2-aminocyclohexyl)amino)-5-fluoro-2-((6-(phenylamino)pyridin-3-yl)amino)nicotinamide]
20 | 50 to 100 | Cn1cc(Nc2nc(N[C@@H]3CCCC[C@@H]3N)c(F)cc2C(N)=O)cc(-n2ccnn2)c1=O (relative stereo) [Example 006-428, 6-((cis-2-aminocyclohexyl)amino)-5-fluoro-2-((1-methyl-6-oxo-5-(1H-1,2,3-triazol-1-yl)-1,6-dihydropyridin-3-yl)amino)nicotinamide]

Same assay, conditions: read-out: Syk-inhibitory activity (IC50)

Row | IC50 [nM] | SMILES
21 | ≤ 1000 | COc1ccc(Nc2nc(N[C@@H]3CCCC[C@@H]3N)c(F)cc2C(N)=O)c2cccnc12 (relative stereo) [Example 6-67, 6-(cis-2-aminocyclohexylamino)-5-fluoro-2-((8-methoxyquinolin-5-yl)amino)nicotinamide]
22 | ≤ 1000 | NC(=O)c1cc(F)c(N[C@@H]2CCCC[C@@H]2N)nc1Nc1cccc2nsnc12 (relative stereo) [Example 6-68, 6-(cis-2-aminocyclohexylamino)-2-(benzo[c][1,2,5]thiadiazol-4-ylamino)-5-fluoronicotinamide]
23 | ≤ 1000 | NC(=O)c1cc(F)c(N[C@@H]2CCCC[C@@H]2N)nc1Nc1cncc(NC(=O)c2ccccc2)c1 (relative stereo) [Example 26, 6-(cis-2-aminocyclohexylamino)-2-(5-benzoylaminopyridin-3-ylamino)-5-fluoronicotinamide]
